Values quoted from earlier work as cited in US5480649A, “Procaterol-containing preparation for application to the skin” (Teikoku Seiaku Kabushiki Kaisha, priority 1990, dated 1996).

Test system: β-receptor of sympathetic nerves
Settings: background statement

CCC(NC(C)C)C(O)c1ccc(O)c2[nH]c(=O)ccc12 (centres unmarked) [procaterol]
bronchodilating activity: strong bronchodilating activity in very small amounts
duration of the activity: ≥ 8 h
